Among the data in ChEMBL document CHEMBL6153122, “Antimycobacterial Activities of the Zanthoxylum leprieurii Metabolite Adubangoamide and Non-Natural Fagaramide Analogues” (2025) are MIC values, retold here.

Values after ≈ are worked out from the molar mass of the structure shown.

In one test the test system is Mycobacterium tuberculosis. Nature of the test: Antimycobacterial activity against multidrug-resistant Mycobacterium tuberculosis 375. The format is functional.
The MIC is the lowest concentration that inhibits growth of the organism. Low readings indicate greater potency, high ones weaker potency. With `CC(C)CNC(=O)/C=C/c1ccc2c(c1)OCO2` [FOGARAMIDE], the MIC came to 1010 µM (≈ 250 µg/mL).

Another test has as its system Mycobacterium tuberculosis. Nature of the test: Antimycobacterial activity against multidrug-resistant Mycobacterium tuberculosis 375 by microplate Alamar blue assay. The test is classed as functional. For orientation: Alamar Blue is a resazurin reagent that responds to reducing activity.
In the case of `O=C(/C=C/c1ccc2c(c1)OCO2)NCc1cc(F)cc(F)c1`, the lowest concentration to inhibit growth (MIC) was 788 µM (≈ 250 µg/mL).
Compound `O=C(/C=C/c1ccc2c(c1)OCO2)NCc1ccccc1Cl` displayed an MIC of 792 µM (≈ 250 µg/mL).
The compound `CC(C)=CCOc1ccc(/C=C/C(=O)NCC(C)C)cc1` returned an MIC of 1200 µM (≈ 345 µg/mL).
Compound `COc1cccc(CNC(=O)/C=C/c2ccc3c(c2)OCO3)c1` had an MIC of 803 µM (≈ 250 µg/mL).
Same read-out and setting: for `CN(C)c1ccc(CNC(=O)/C=C/c2ccc3c(c2)OCO3)cc1` the value was 3560 µM (≈ 1150 µg/mL).
Take `O=C(/C=C/c1ccc2c(c1)OCO2)NCc1ccc(C(F)(F)F)cc1F`: the MIC came to 1020 µM (≈ 375 µg/mL).
In turn, `O=C(/C=C/c1ccc2c(c1)OCO2)NCc1ccccc1` returned an MIC of 667 µM (≈ 188 µg/mL).
`O=C(/C=C/c1ccc2c(c1)OCO2)NCc1ccc(N2CCC(c3ccc(F)cc3)CC2)cc1` yielded an MIC of 545 µM (≈ 250 µg/mL).
Consider `O=C(/C=C/c1ccc2c(c1)OCO2)NCc1ccc(N2CCC(C(F)(F)F)CC2)cc1`, for which the MIC came to 2310 µM (≈ 1000 µg/mL).
